In the assay the target is Krueppel-like factor 5 (Homo sapiens) (UniProt Q13887). Briefly: KLF5 protein abundance shift by immunoblot – western blot, chemiluminescence, HT29 colorectal cells, counter-screen for KLF5 inhibitor project, late-stage follow-up (AID 588660). The conditions noted are these: 24 h, at 10 µM, active compounds read high.

Active and inactive are the calls of the source.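 How the source made its calls: active means KLF5 protein level shifted at least 30% from solvent-only control, either down or up; inactive means shift under 30% either way.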

Sequence of Krueppel-like factor 5 (Homo sapiens) (Q13887 whole entry, looked up): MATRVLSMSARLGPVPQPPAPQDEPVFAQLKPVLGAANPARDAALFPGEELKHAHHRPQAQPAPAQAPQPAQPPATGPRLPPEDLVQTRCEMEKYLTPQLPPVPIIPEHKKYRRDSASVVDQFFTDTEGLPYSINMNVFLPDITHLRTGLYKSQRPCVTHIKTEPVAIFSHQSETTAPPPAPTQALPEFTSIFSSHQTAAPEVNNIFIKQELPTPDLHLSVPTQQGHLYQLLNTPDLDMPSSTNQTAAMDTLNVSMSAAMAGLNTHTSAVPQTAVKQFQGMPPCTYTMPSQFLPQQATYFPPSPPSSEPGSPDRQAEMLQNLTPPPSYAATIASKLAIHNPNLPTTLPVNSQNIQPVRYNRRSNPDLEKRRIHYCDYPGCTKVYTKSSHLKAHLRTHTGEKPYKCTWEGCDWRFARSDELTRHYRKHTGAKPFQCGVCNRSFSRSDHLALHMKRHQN

On to `CN(C(=O)COC(=O)/C=C/c1cccc([N+](=O)[O-])c1)C1CCS(=O)(=O)C1` (stereo unspecified), for which the inhibition (in general, how much of the control response was suppressed) was 12.8% (inactive).

Values taken from PubChem BioAssay AID588660 (The Scripps Research Institute Molecular Screening Center, 2011).
